Experimental data reported in publication PMC4598023 (PLoS ONE, 2015).
Like-named read-outs stand apart in the source and are kept apart here. Each block holds one molecule with its values, some of them ahead of it. Bridges are numbered along the chain shown (N, C = ends). Where no end group is shown, it is not given here.

T1: human receptor-activity modifying protein 3 Extracellular Topological Domain (human, UniProt O60896 28-117, fluorescein (FITC, below 1 mol per mol protein, position not stated))
T1 construct: human receptor-activity modifying protein 3, extracellular topological domain, residues 28-117 of O60896; pET28b construct with a thrombin cleavage site after the N-terminal histidine tag; no cleavage is told; also called RAMP3-ETD; RAMP3
T1 sequence (looked up): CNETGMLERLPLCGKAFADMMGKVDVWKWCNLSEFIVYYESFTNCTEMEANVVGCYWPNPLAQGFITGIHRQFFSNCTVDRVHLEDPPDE

B1: murine amylin (peptide, UniProt P12968 38-74, looked up)
peptide: KCNTATCATQRLANFLVRSSNNLGPVLPPTNVGSNTY-NH2
modifications: disulfide 2-7; also: FITC (<1 mol/mol, position not given here) on labelled copy only
notes: murine amylin (islet amyloid polypeptide), the 37-residue hormone; numbers count on: the mature protein; The unlabelled ligand and the FITC-labelled copy are written as one molecule; also called free murine amylin; non-conjugated amylin; source: synthetic peptide, bought: Genemed Synthesis Inc
B2: monoPEGylated human amylin (peptide, UniProt P10997 34-70, looked up)
peptide: KCNTATCATQRLANFLVHSSNNFGAILSSTNVGSNTY-NH2
modifications: disulfide 2-7; also: one methoxy-PEG 5 kDa (mPEG succinimidyl carbonate) at an amino group of Lys1, N-terminal region
notes: human amylin (islet amyloid polypeptide, IAPP), the 37-residue hormone, amino acids 1 to 37; numbers count on: the mature protein; The PEG site was placed by trypsin digestion and MALDI-ToF-MS: fragment 12-37 is unmodified; also called PEGylated amylin; hAmylin-PEG

Columns and labels:
[1] = cited from earlier work
Text: One additional limitation for the use of the currently available amylinomimetic compound is the lack of ability for mimicking the basal levels of amylin in the fasting state. […] (Fig 6A) and thus a sustained release of amylin of an increasing in its t1/2 would serve as potential strategies for the restoration of basal hormone levels. […] Additionall ...

[2] = Pharmacokinetics after subcutaneous administration in mice (serum amylin by ELISA); assay type: in vivo; conditions: Swiss male mice, s.c., 400 μg peptide/kg; for level at time molar at 5 s / level at time molar at 0.5 min / level at time molar at 1 min / level at time molar at 2 min / level at time molar at 4 min / level at time molar at 0.8 h: male, Swiss, 400 ug peptide/kg, ELISA, read-out: amylin concentration (serum); for level at time molar at 5 s: Time 0.0833 (head: min); for level at time molar at 0.5 min: Time 0.5 (head: min); for level at time molar at 1 min: Time 1 (head: min); for level at time molar at 2 min: Time 2 (head: min); for level at time molar at 4 min: Time 4 (head: min); for level at time molar at 0.8 h: Time 48 (head: min)
Description: Swiss male mice (8 weeks old; n = 4 per group) were administrated of free or monoPEGylated human amylin (both at 400 μg peptide / kg body weight) by subcutaneous route. At the indicated time interval, blood was collected with glass capillary tubes from retro-orbital access and the serum was separated. The concentration of amylin in the plasma was evaluated by ELISA (Merck Millipore, cat # EZHA-52K) by following the manufacturer protocol. The sensitivity of the ELISA assay kit for the monoPEGylated human amylin product was similar to the non-conjugated human amylin as inferred from control analytical curves. In case needed, the mice plasma samples were diluted accordingly in order to achieve the desired concentration range of the ELISA kit. Glucagon was evaluated from the same serum samples, by using an ELISA kit (Merck Millipore, Cat # EZGLU-30K) according to instructions of the manufacturer.
Continuous lines are best fitting of single-exponential decay function to data. b) Modulation of glucagon. […] The raw data can be found in S2 File.

Trypsin = assay: trypsin in 25 mM ammonium bicarbonate, after reduction with dithiothreitol and blockage with iodoacetamide; conditions: 37°C, up to 18 h
[3] = target: T1, human receptor-activity modifying …; assay: fluorescence polarisation; fluorescence anisotropy of the FITC-labelled protein (50 nM murine amylin, CTR1 or RAMP3) against total concentration of unlabelled ligand; PBS pH 7.4, 25°C; ex 480 nm, em 520 nm, cut-off filter 515 nm; conditions: both partners purified
murine amylin = target: B1; assay: as above; conditions: both partners purified
[4] = fit of serum concentration vs time
[5] = mouse, in vivo, sc, replicate column 1
[6] = mouse, in vivo, sc, replicate column 2

Molecule: CC[C@H](C)[C@H](NC(=O)[C@H](C)NC(=O)CNC(=O)[C@H](Cc1ccccc1)NC(=O)[C@H](CC(N)=O)NC(=O)[C@H](CC(N)=O)NC(=O)[C@H](CO)NC(=O)[C@H](CO)NC(=O)[C@H](Cc1c[nH]cn1)NC(=O)[C@@H](NC(=O)[C@H](CC(C)C)NC(=O)[C@H](Cc1ccccc1)NC(=O)[C@H](CC(N)=O)NC(=O)[C@H](C)NC(=O)[C@H](CC(C)C)NC(=O)[C@H](CCCNC(=N)N)NC(=O)[C@H](CCC(N)=O)NC(=O)[C@@H](NC(=O)[C@H](C)NC(=O)[C@@H]1CSSC[C@H](NC(=O)[C@@H](N)CCCCN)C(=O)N[C@@H](CC(N)=O)C(=O)N[C@@H]([C@@H](C)O)C(=O)N[C@@H](C)C(=O)N[C@@H]([C@@H](C)O)C(=O)N1)[C@@H](C)O)C(C)C)C(=O)N[C@@H](CC(C)C)C(=O)N[C@@H](CO)C(=O)N[C@@H](CO)C(=O)N[C@H](C(=O)N[C@@H](CC(N)=O)C(=O)N[C@H](C(=O)NCC(=O)N[C@@H](CO)C(=O)N[C@@H](CC(N)=O)C(=O)N[C@H](C(=O)N[C@@H](Cc1ccc(O)cc1)C(N)=O)[C@@H](C)O)C(C)C)[C@@H](C)O [human amylin]
half-life (t1/2) [1]: 15 to 20 min
Half Life (One phase decay, best-fit value) ([2]; (unit not given)): 0.3893
Tau (One phase decay, best-fit value) ([2]; (unit not given)): 0.5616
K (One phase decay, best-fit value) [2, 4]: 1.781
Plateau (One phase decay, best-fit value) [2, 4]: 184.9
Span (One phase decay, best-fit value) [2, 4]: 6701
Y0 (One phase decay, best-fit value) [2, 4]: 6886
level at time molar at 5 s [2, 5]: 6630 nM
level at time molar at 5 s [2, 6]: 6710 nM
level at time molar at 0.5 min [2, 5]: 4690 nM
level at time molar at 0.5 min [2, 6]: 659 nM
level at time molar at 1 min [2, 5]: 2720 nM
level at time molar at 1 min [2, 6]: 423 nM
level at time molar at 2 min [2, 5]: 593 nM
level at time molar at 2 min [2, 6]: 324 nM
level at time molar at 4 min [2, 5]: 198 nM
level at time molar at 4 min [2, 6]: 207 nM
level at time molar at 0.8 h [2, 5]: 22.7 nM
level at time molar at 0.8 h [2, 6]: 18.2 nM
half-life ([2]; mouse, in vivo, sc, serum amylin by ELISA, single-exponential decay fit, n = 4 per group): 23 min

cleaved bond (Trypsin): Arg11-L12
Molecule: KCNTATCATQRLANFLVHSSNNFGAILSSTNVGSNTY-CONH2

Molecule: B1
binding result [3]: binds

Molecule: B2
binding result [3]: binds
binding result (murine amylin): binds
